Experimental data taken from patent publication US6413952B1, “Agonizing dimeric cell-surface receptors with a receptor binding moiety and chelating metal” (SmithKline Beecham Corporation, priority 1997, dated 2002).
“Also recorded” adds a separate entry of the source. Each block holds one molecule with its values, some of them ahead of it.

Columns and labels:
G-CSF receptor [1] = biological target: T1, G-CSF receptor (Mus musculus, UniProt P40223); assay: Luciferase assay on NFS60 cells in the presence of EDTA / metal chlorides; type: cell-based, murine; conditions: for effect of EDTA on agonist (luciferase) activity: EDTA 1.2 and 5 millimolar, media contained 1-5 uM zinc(II) (FIGS. 3, 4)
T1 construct: they express endogenous G-CSF receptors; endogenous in cells; host or cells: NFS60 murine myeloid cell line with a G-CSF-responsive luciferase reporter
T1 sequence (P40223 26-837): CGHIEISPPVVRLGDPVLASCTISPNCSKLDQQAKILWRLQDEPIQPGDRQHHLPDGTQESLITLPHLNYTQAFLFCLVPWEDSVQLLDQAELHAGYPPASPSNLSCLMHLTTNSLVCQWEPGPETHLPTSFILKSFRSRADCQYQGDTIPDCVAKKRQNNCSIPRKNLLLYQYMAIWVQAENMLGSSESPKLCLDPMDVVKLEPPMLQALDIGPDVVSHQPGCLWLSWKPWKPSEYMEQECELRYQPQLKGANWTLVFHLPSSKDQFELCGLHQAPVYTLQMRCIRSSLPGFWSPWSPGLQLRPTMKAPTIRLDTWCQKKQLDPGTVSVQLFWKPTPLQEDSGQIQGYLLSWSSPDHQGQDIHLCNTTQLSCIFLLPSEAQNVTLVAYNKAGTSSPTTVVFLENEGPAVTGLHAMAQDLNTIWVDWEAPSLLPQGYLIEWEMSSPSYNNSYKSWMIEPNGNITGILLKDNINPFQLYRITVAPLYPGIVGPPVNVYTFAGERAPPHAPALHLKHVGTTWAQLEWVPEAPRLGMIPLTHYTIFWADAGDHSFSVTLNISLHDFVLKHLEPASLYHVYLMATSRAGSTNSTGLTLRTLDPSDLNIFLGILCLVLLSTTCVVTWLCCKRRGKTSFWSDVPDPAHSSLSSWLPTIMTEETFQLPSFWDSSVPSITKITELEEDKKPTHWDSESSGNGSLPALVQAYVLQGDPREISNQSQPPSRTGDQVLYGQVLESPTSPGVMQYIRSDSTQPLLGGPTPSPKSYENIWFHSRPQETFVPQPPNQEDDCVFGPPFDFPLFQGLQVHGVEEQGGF
Description: FIG. 3 is an analysis of the effect of ethylenediaminetetraacetic acid (as used herein—EDTA) on the activity of Compound 1a (from Example 1) in NFS60 cells. Shown are luciferase response curves of Compound 1a at the indicated concentrations and in the presence of various concentrations of EDTA. […] The media in this assay contained a small amount (1-5 uM) of zinc(II).
FIG. 4 is an analysis of the effect of EDTA on the activity of recombinant G-CSF on NFS60 cells. Shown are luciferase response curves of recombinant G-CSF at the indicated concentrations and in the presents of various concentrations of EDTA. EDTA at both 1.2 and 5 millimolar has little effect on the activity of recombinant G-CSF in the assay.
FIGS. 5 and 6 depict an analysis of the activity of metal chlorides alone on the basal luciferase level of NFS60 cells. Shown are luciferase response curves of the indicated metal chlorides at various concentrations. None of the metals have a meaningful effect on the basal luciferase levels at concentrations equal or less than 10 micromolar.
FIGS. 7 and 8 show an analysis of the effect of metal chlorides on the EDTA depleted activity of Compound 1a on NFS60 cells. Shown are luciferase response curves as effected by the indicated metal chlorides. […] None of the other metals tested could overcome the inhibitory effect of EDTA.
In order to determine the requisiteness of metal chelation of small organic molecules to agonist activity at dimeric cell-surface receptors, the above luciferase assay was performed on the G-CSF receptor in the presence of EDTA. EDTA is a strong metal chelator and had as its only effect, the removal of zinc and other metals from the ligand-receptor interaction.

G-CSF receptor [2] = biological target: T1, G-CSF receptor; assay: Luciferase reporter gene assay on G-CSF-responsive NFS60 cell line; type: cell-based, murine; conditions: NFS60 cells, absence of zinc (FIG. 1)
Description: Activity of compound 1a is below the threshold of 150% over background. The study was performed as a Luciferase assay configured on the G-CSF-responsive NFS60 cell line as described in Tian et al., Science 281, 257-259 (1998). The experiments shown in FIGS. 2-8 used the same NFS60 cell line.
Compounds of the present invention are tested for potency as agonist of a dimeric cell-surface receptor in a Luciferase reporter gene assay such as described in Tian et al., Science 281, 257-259 (1998). For example, for G-CSF NFS60 cells (Holmes, et al., Proc. Natl. Acad. Sci. USA 82: 6687-6691 (1985)) are selected because they express endogenous G-CSF receptors closely matching the pattern of STAT (signal transducers and activators of transcription) activation observed in primary murine and human bone marrow cells.

Molecule: zinc (II) [reference compound]
effect of metal chlorides on the EDTA depleted luciferase activity of Compound 1a (G-CSF receptor [1]; 50 micromolar EDTA, metal 0.5-10 micromolar (FIGS. 7, 8)): can overcome the inhibition in luciferase activity

luciferase activity over background (G-CSF receptor [2]): < 150%
Molecule: c1ccc(C23NC(=Nc4nc5ccccc5[nH]4)NC2(c2ccccn2)NC(=Nc2nc4ccccc4[nH]2)N3)nc1 (stereo not shown) [Compound 1a, 2,5-Bis[2-benzimidazolylimino]-3a,6a-bis(2-pyridyl)-1,2,3,3a,4,5,6,6a-octahydroimidazo[4,5-d]imidazole]
effect of EDTA on agonist (luciferase) activity (G-CSF receptor [1]): antagonized the activity; also recorded: abrogated

B1: recombinant G-CSF: the natural ligand (i.e. G-CSF or recombinant G-CSF) of the G-CSF receptor (protein, UniProt P09919 31-207, looked up)
Granulocyte …: TPLGPASSLPQSFLLKCLEQVRKIQGDGAALQEKLVSECATYKLCHPEELVLLGHSLGIPWAPLSSCPSQALQLAGCLSQLHSGLFLYQGLLQALEGISPELGPTLDTLQLDVADFATTIWQQMEELGMAPALQPTQGAMPAFASAFQRRAGGVLVASHLQSFLEVSYRVLRHLAQP
effect of EDTA on agonist (luciferase) activity (G-CSF receptor [1]): little effect; also recorded: not mediated by metal ions
